Test results as given in a melting point compilation (Tetko et al.; mined from patent text by program, amines drawn as free bases though some values may be those of a salt).

Q: With `Cc1ccc(-n2nc(C(C)(C)C)cc2NC(=O)Nc2ccc(OCCN3CCS(=O)CC3)c3ccccc23)cc1` as the molecule, how does the melting point read?
A: 205 to 207 °C

Q: For `O=C1CSc2ccc(S(=O)(=O)Cl)cc2N1`, which melting point is on record?
A: 165 to 167 °C

Q: Which melting point does the source give for `Cc1cccc2c1nc(-c1ccncc1)n2Cc1c(F)cccc1F` here?
A: 171 to 172 °C

Q: With `Cc1ccc2c(c1)C=C(N1CCN(CCN3CCOC3=O)CC1)c1cc(Cl)ccc1S2` as the molecule, how does the melting point read?
A: 194 to 196 °C

Q: With `Cc1cc(Oc2c([N+](=O)[O-])cc([N+](=O)[O-])cc2C(F)(F)F)n[nH]1` as the molecule, how does the melting point read?
A: 145 to 147 °C

Q: Which melting point does the source give for `CC(C)(Oc1ccc(OCc2ccc3nn(-c4ccc(C(F)(F)F)cc4)cc3c2)cc1)C(=O)O` here?
A: 203 to 205 °C

Q: For `NC(=S)Nc1c(Br)cccc1Br`, which melting point is on record?
A: 186 to 189 °C

Q: For `FC(F)(F)c1ccc(-c2cc(Oc3cccc4ccc(Cl)nc34)ncn2)cc1`, which melting point is on record?
A: 172 to 173 °C

Q: Which melting point does the source give for `Cc1cccc(C)c1CCCN1C(=O)c2ccccc2C1=O` here?
A: 92 to 93.5 °C

Q: With `O=C1CC(c2cccc(-n3ccnc3)c2)=Nc2cc(N3CCOC3=O)c(-c3ccc(F)cc3)cc2N1` as the molecule, how does the melting point read?
A: 230 °C

Q: Which melting point does the source give for `CCOC(=O)CC1CN=C(c2cc3cc(OC(F)(F)F)cc(N(C)S(=O)(=O)c4cccs4)c3[nH]2)S1` (stereo unspecified) here?
A: 93 to 94 °C

Q: With `COc1ccc2c(c1)N(CCCCl)c1cccc(S(C)(=O)=O)c1S2` as the molecule, how does the melting point read?
A: 122 to 124 °C

Q: With `COC(=O)CC1SC2=Nc3ccccc3CN2C1=O` (stereo unspecified) as the molecule, how does the melting point read?
A: 143 to 144 °C

Q: Which melting point does the source give for `O=[N+]([O-])c1ccc(Oc2ccccc2Oc2ccc(Cl)cn2)nc1` here?
A: 82 to 84 °C

Q: With `N#CC1CN1C(=O)NC(=O)c1cccc([N+](=O)[O-])c1` (stereo unspecified) as the molecule, how does the melting point read?
A: 156 to 158 °C

Q: With `COCCNC(=O)c1cccc(-c2ccc(F)c3cc(Cc4cccc(C(F)(F)F)c4)sc23)c1` as the molecule, how does the melting point read?
A: 123 to 124 °C

Q: With `CSC1=NC=CC(NN)(SC)N1` (stereo unspecified) as the molecule, how does the melting point read?
A: 120 to 125 °C

Q: For `CCCCOc1cc(CCS(=O)(=O)NC(=O)OC(C)C)n(Cc2ccc(Cl)cc2Cl)n1`, which melting point is on record?
A: 120 to 121 °C

Q: For `CC(C)c1nc(CN2C(=O)C3(COc4cc5c(cc43)OCO5)c3c(Cl)cccc32)cs1` (stereo unspecified), which melting point is on record?
A: 147 to 148 °C

Q: For `CCOC(=O)CN1C(=O)COc2cc(F)ccc21`, which melting point is on record?
A: 90 to 91.5 °C

Q: Which melting point does the source give for `O=C(O)c1c(F)cc(OCCNC(=O)C2Cc3ccccc3N2S(=O)(=O)c2ccc(-c3ccc(F)cc3Cl)cc2)cc1F` (stereo unspecified) here?
A: 75 to 80 °C

Q: With `Clc1cc(Nc2cc(C3CC3)n[nH]2)nc(Sc2ccc3ccccc3c2)n1` as the molecule, how does the melting point read?
A: 118 to 120 °C

Q: For `Cn1c(C(F)(F)F)nn(-c2cc(F)c(C#N)cc2Cl)c1=O`, which melting point is on record?
A: 105 °C

Q: With `CC(C)=CCN1CCC(=C2c3ccccc3CCn3ccnc32)CC1` as the molecule, how does the melting point read?
A: 127 °C

Q: With `C=CCN1Cc2cc(Br)ccc2C1=O` as the molecule, how does the melting point read?
A: 58 to 60 °C

Q: With `COc1cc2c(cc1[N+](=O)[O-])N(C)C(=O)CNC2` as the molecule, how does the melting point read?
A: 145 to 149 °C

Q: With `CCCCCCCCCCCCCCCC1CCCC(c2ccc(N)cc2)(c2ccc(N)cc2)C1` (stereo unspecified) as the molecule, how does the melting point read?
A: 107 °C

Q: Which melting point does the source give for `CC(C)(C)[S@](=O)N1CCC[C@H]1c1cccs1` here?
A: 125 to 130 °C

Q: With `COC(=O)C(=O)Cc1ccc(SC)cc1` as the molecule, how does the melting point read?
A: 112 to 113 °C

Q: With `CCOC(=O)C(SC)C(=O)Nc1ccc(Br)cc1C` (stereo unspecified) as the molecule, how does the melting point read?
A: 85 to 88 °C

Q: Which melting point does the source give for `Cc1ccc(-c2c3n(c(=O)c4ncccc24)CCCN(Cc2cc(C(F)(F)F)cc(C(F)(F)F)c2)C3=O)cc1` here?
A: 194 to 195 °C

Q: For `CC(=O)OC1(C(C)=O)C(C)CC2C3CC(C)C4=CC(=O)C=CC4(C)C3(F)C(O)CC21C` (stereo unspecified), which melting point is on record?
A: 291 to 293 °C

Q: For `O=C(O)c1ccccc1C(=O)OCC1CN(C(=O)Oc2ccccc2)CCC1c1ccc(F)cc1` (stereo unspecified), which melting point is on record?
A: 149 to 151 °C

Q: With `COC(=O)c1ccc2c(c1)C(c1ccccn1)=CC(C)(C)O2` as the molecule, how does the melting point read?
A: 94 to 95 °C

Q: Which melting point does the source give for `COc1cc(C(=O)NC2CCC(N(C)C)CC2)ccc1Nc1ncc2c(n1)N(C1CCCCC1)CC(F)(F)C(=O)N2C` (stereo unspecified) here?
A: 208 to 214 °C

Q: Which melting point does the source give for `Brc1cn2cc(-c3ccccc3)nc2c(Br)n1` here?
A: 254 °C

Q: Which melting point does the source give for `O=C(Nc1ccccn1)Nc1csc(-c2ccccn2)n1` here?
A: 233 to 235 °C

Q: With `COC(=O)C1C=CCn2c(=O)n(CSC(C)=O)c(=O)n21` (stereo unspecified) as the molecule, how does the melting point read?
A: 110 to 111 °C

Q: Which melting point does the source give for `COCC(=O)NCc1cccc2c1CN(C1CCC(=O)NC1=O)C2=O` (stereo unspecified) here?
A: 232 to 234 °C

Q: With `COP(=O)(Cc1ccc(-c2nc3ccccc3s2)nc1)OC` as the molecule, how does the melting point read?
A: 152 °C

Q: Which melting point does the source give for `Cc1c(F)c(F)c(-n2ncc(C#N)c2N)c(F)c1F` here?
A: 169 to 170 °C

Q: For `CC(C)(C)c1cc(C=C2SCN(C3CC3)C2=O)cc(C(C)(C)C)c1O`, which melting point is on record?
A: 162 to 164 °C

Q: Which melting point does the source give for `O=C(c1cccc(C(F)(F)F)c1)N(CCCCn1ccnc1)C1=Nc2cccc3cccc1c23` here?
A: 165 to 167 °C

Q: With `COC(=O)c1cc(I)cc(OC)c1O` as the molecule, how does the melting point read?
A: 104 °C

Q: For `CS(=O)(=O)c1ccc(-c2c(-c3ccc(F)cc3)nc3sccn23)cc1`, which melting point is on record?
A: 184 to 185 °C

Q: For `O=C(O)c1ccccc1Oc1ccccc1C1CCCCC1`, which melting point is on record?
A: 109 to 123 °C

Q: Which melting point does the source give for `CC(=NNc1ccc(C2=NNC(=O)CC2)cc1)c1ccnnc1` here?
A: 258 to 260 °C

Q: With `O=C1CCCc2cc(Sc3cccc(F)c3)ccc21` as the molecule, how does the melting point read?
A: 66.2 to 66.7 °C

Q: With `c1ccc(Nc2nsc3nc4ccccc4n23)nc1` as the molecule, how does the melting point read?
A: 156 to 157 °C

Q: For `CC(C)C1COCc2nc3c(N)nc4cc(OCCN5CCOCC5)ccc4c3n21` (stereo unspecified), which melting point is on record?
A: 194 to 195 °C

Q: For `COCOc1cc(Cl)ccc1-c1cc(-c2cccc(C(=O)NCC3CCCCN3C(=O)OC(C)(C)C)c2)c(C#N)c(NC(=O)c2ccco2)n1` (stereo unspecified), which melting point is on record?
A: 133 to 136 °C

Q: With `CCN(CC)CCOc1ccc(Nc2ncc3c(n2)N(C2CCCC2)C(=O)NC3)cc1C` as the molecule, how does the melting point read?
A: 175 to 177 °C

Q: For `Cc1cccc(C)c1N1CCN(CCNc2c(Cl)cnn(C)c2=O)CC1`, which melting point is on record?
A: 225 to 232 °C

Q: For `O=C(Nc1cc(Cl)ccc1OCc1nnn[nH]1)c1cc(-c2ccc(Cl)cc2)oc1C(F)(F)F`, which melting point is on record?
A: 227 to 236 °C

Q: For `Nc1nc2nc(SCc3ccccc3)nc(Cl)c2s1`, which melting point is on record?
A: 217 to 218 °C

Q: With `Cc1cc(Cl)ccc1N1CCCNC1=S` as the molecule, how does the melting point read?
A: 266 to 268 °C

Q: With `COc1cccc(-c2c(C(=O)O)c(=O)n(C)c3ncccc23)c1` as the molecule, how does the melting point read?
A: 196 to 197 °C

Q: Which melting point does the source give for `CCCN(CCC)C(=O)Cn1c(-c2ccc(Cl)cc2)nc2ccc(Cl)nc21` here?
A: 170 to 174 °C

Q: With `O=C(/C=C/c1ccc(F)cc1)c1cnc2sc3c(n12)CCCCC3` as the molecule, how does the melting point read?
A: 187 to 188 °C

Q: For `CCc1ccc(N)c(CS(=O)c2nc3ccccc3[nH]2)c1` (stereo unspecified), which melting point is on record?
A: 155 to 156 °C

Q: Which melting point does the source give for `Cc1c(C(=O)Nc2ccc(N3CCC(N4CCC(=O)CC4)CC3)c(C#N)c2)cnn1-c1ccc(Cl)cc1` here?
A: 213 °C

Q: For `CCOC(=O)C(C)Oc1ccc(OCc2ccccc2)cc1F` (stereo unspecified), which melting point is on record?
A: 63 °C

Q: Which melting point does the source give for `Brc1ccc(-c2nc3cc(Br)ccc3s2)cc1` here?
A: 162 to 163 °C

Q: With `CC(C)Oc1ccc(C(=O)O)c(Cl)n1` as the molecule, how does the melting point read?
A: 173 to 174 °C

Q: With `CC(C)c1oc(-c2ccccc2)nc1CC(=O)O` as the molecule, how does the melting point read?
A: 141 to 143 °C

Q: For `Cc1ccc(NC(=O)c2ccc(CN(C)C)c(C(F)(F)F)c2)cc1-c1ccc2ccncc2c1`, which melting point is on record?
A: 169 to 172 °C

Q: With `NC(=O)c1cc(O)ccc1Cl` as the molecule, how does the melting point read?
A: 159 to 161 °C

Q: For `O=C(O)c1cc(NCCCc2ccc([N+](=O)[O-])cc2)ccc1O`, which melting point is on record?
A: 229 to 231 °C

Q: Which melting point does the source give for `Nc1nc(C(=NOCC(=O)NOCc2ccccc2)C(=O)O)cs1` here?
A: 170 to 172 °C

Q: For `Cc1c(CN2CCOCC2)ccc2c1-c1[nH]nc(-c3ccsc3)c1C2`, which melting point is on record?
A: 272 to 274 °C

Q: For `CC1(C)O[C@H](CC#N)C[C@H](CC(=O)N(c2ccccc2)c2ccccc2)O1`, which melting point is on record?
A: 98 to 100 °C
